Test results as given in patent publication US20230111310A1, “CARBOXYLIC ACID DERIVATIVE-SUBSTITUTED IMINO ARYL COMPOUND, PREPARATION METHOD THEREFOR, HERBICIDAL COMPOSITION AND USE THEREOF” (Qingdao Kingagroot Chemical Compound Co., Ltd., priority 2020, published 2023).

Legend:
Format in all cases: in vivo
[1] = test system: Capsella bursa-pastoris; test: Weeding effect in pre-emergence stage; conditions: 4 weeks
Method in brief: (§1)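 Pots were kept in the greenhouse for 4 weeks and then rated for growth control on activity-level criteria. Spraying took place immediately after sowing at application rates of 500 to 7.5 g/ha, using an acetone/tween 80 formulation diluted with water, on seeds under 0.5-2 cm of soil.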

[2] = test system: Veronica didyma Tenore; test: Weeding effect in pre-emergence stage; conditions: 4 weeks
Method in brief: as §1

[3] = test system: Abutilon theophrasti; test: Weeding effect in pre-emergence stage; conditions: 4 weeks
Method in brief: as §1

[4] = test system: Setaria viridis; test: Weeding effect in pre-emergence stage; conditions: 4 weeks
Method in brief: as §1

[5] = test system: Amaranthus retroflexus; test: Weeding effect in pre-emergence stage; conditions: 4 weeks
Method in brief: as §1

[6] = test system: Descurainia sophia; test: Weeding effect in pre-emergence stage; conditions: 4 weeks
Method in brief: as §1

[7] = test system: cotton; test: Pre-emergence stage, crop selectivity; conditions: 4 weeks
Method in brief: as §1

[8] = test system: Soybeans; test: Pre-emergence stage, crop selectivity; conditions: 4 weeks
Method in brief: as §1

[9] = test system: corn; test: Pre-emergence stage, crop selectivity; conditions: 4 weeks
Method in brief: as §1

[10] = test system: Peanut; test: Pre-emergence stage, crop selectivity; conditions: 4 weeks
Method in brief: as §1

[11] = test system: Rice; test: Transplanted rice safety evaluation; conditions: transplanted japonica rice, 30 g/ha, 21 days after treatment
Protocol: (§2) The activity level criteria for plant damage (i.e., growth control rate) are as follows:
In addition, the rice field soil that loaded into the 1/1,000,000 ha pot was leveled to keep water storage at 3-4 cm depth. The 5 leaf stage rice (japonica rice) was transplanted at 3 cm of transplanting depth the next day. The compound of the present invention was treated by the same way after 5 days of transplantation.
(§3) The fertility condition of Echinochloa crusgalli. Scirpus juncoides. Bidens tripartita L., Monochoria vaginalis, Leptochloa chinensis and Sagittaria trifolia 14 days after the treatment of the compound of the invention and the fertility condition of rice 21 days after the treatment of the compound of the invention respectively with the naked eye. Evaluate the weed control effect with the above activity standard level. Many compounds show excellent activity and selectivity.

[12] = test system: Digitaria sanguinalis; test: Weeding effect in post-emergence stage; conditions: level of fresh weight growth control rate
Method in brief: (§4)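 Read-out is growth control rate, counted 3 weeks post-spray and averaged over three repeats. Greenhouse plants at the 2-3 leaf stage received spray-tower application at 500, 250, 125, 60, 30, 15 or 7.5 g/ha, with methyl oleate EC (1.5 liter/ha) and Tween 80 added.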

[13] = test system: Alopecurus japonicus; test: Weeding effect in post-emergence stage; conditions: level of fresh weight growth control rate
Method in brief: as §4

[14] = test system: Abutilon theophrasti; test: Weeding effect in post-emergence stage; conditions: level of fresh weight growth control rate
Method in brief: as §4

[15] = test system: Setaria viridis; test: Weeding effect in post-emergence stage; conditions: level of fresh weight growth control rate
Method in brief: as §4

[16] = test system: Eleusine indica; test: Weeding effect in post-emergence stage; conditions: for Weeding effect in post-emergence stage, Eleusine indica: level of fresh weight growth control rate
Method in brief: as §4

[17] = test system: Echinochloa crusgalli; test: Weeding effect in post-emergence stage; conditions: for Weeding effect in post-emergence stage, Echinochloa crusgalli: level of fresh weight growth control rate
Method in brief: as §4

[18] = test system: Amaranthus retroflexus; test: Weeding effect in post-emergence stage; conditions: 7.5 g/ha, 3 weeks
Method in brief: as §4

[19] = test system: Scirpus juncoides; test: Weed control effect evaluation in rice field; conditions: rice field pot, 30 g/ha, 14 days after treatment
From the text: as §2
(§5) Rice field soil was loaded into a 1/1,000,000 ha pot. The seeds of Echinochloa crusgalli. Scirpus juncoides. Bidens tripartita L., Monochoria vaginalis, and Leptochloa chinensis were sowed and gently covered with soil, then left to stand still in greenhouse in the state of 0.5-1 cm of water storage. The tuber of Sagittaria trifolia was planted in the next day or 2 days later. It was kept at 3-4 cm of water storage thereafter. The weeds were treated by dripping the WP or SC water diluents prepared according to the common preparation method of the compounds of the present invention with pipette homogeneously to achieve specified effective amount when Echinochloa crusgalli. Scirpus juncoides, Bidens tripartita L., Monochoria vaginalis, and Leptochloa chinensis reached 0.5 leaf stage and Sagittaria trifolia reached the time point of primary leaf stage.
as §3

[20] = test system: Leptochloa chinensis; test: Weed control effect evaluation in rice field; conditions: rice field pot, 30 g/ha, 14 days after treatment
From the text: as §2, §5, §3

[21] = test system: Monochoria vaginalis; test: Weed control effect evaluation in rice field; conditions: rice field pot, 30 g/ha, 14 days after treatment
From the text: as §2, §5, §3

[22] = test system: Echinochloa caudata Roshev.; test: Composition activity test, post-emergence foliage spray
Protocol: are as follows, and the others were purchased from reagent companies. The technical materials were all dissolved in acetone and diluted with an aqueous solution containing 0.1% emulsifier Tween-80. The dilution is performed as required.
Weeds were cultivated by a pot culture method. […] Full and uniform weed seeds were selected, soaked in warm water at 25° C. for 6 hours, and germinated in a 28° C. biochemical incubator (darkness). The weed seeds that had just germinated were evenly placed on the surface of the soil and then covered with 0.5-1 cm soil according to the sizes of seeds.
The culture was carried out in a controllable sunlight greenhouse at 20 to 30° C., in natural light, and relative humidity of 57% to 72%.
3 pots with 20 weed seeds per pot were treated in one treatment with 4 replications per treatment.
The agents were used for only once in the experiment. In the stage of weeds with 1.5-2 leaves, the weeds were thinned out to maintain 10 weeds per pot and 30 weeds for each treatment, then continued to be cultured to Conyza Canadensis 10 cm in height, other weeds 3-4 leaves stage and treated.
The well-cultured weeds were evenly placed on a platform with an area of 0.5 m^2, and a solution of agents was sprayed on the stems and leaves thereof by the 3WP-2000-type walking spray tower at a dosage of 450 kg/ha and at a spray pressure of 0.3 MPa. After all the solution was sprayed, the valve was closed. After 30 seconds, the door of the spray tower was opened, and the nutritional bowl was taken out. Then the valve was opened, and the spray tube was cleaned by spraying 50 ml of water. After the treatment, the weeds were routinely cultured in a greenhouse.
A method for investigating absolute number was employed, wherein whole seedlings of survival weeds were cut off with a blade along the soil surface, and the fresh weight of the weeds was weighed with an analytical balance. For dead weeds, the fresh weight thereof was zero.
The investigation was performed after 21 days of the treatment for only once.
An optimum ratio of the two active ingredients was determined by the actual control effect, characteristics of herbicides, and balance of a corresponding formula. Wherein, in the formula, X represented the fresh weight inhibition rate of the active ingredient A in a dosage of P, and Y represented the fresh weight inhibition rate of the active ingredient B in a dosage of Q. The statistical results were shown in the table 6.

[23] = post-emergence, 7.5 g/ha, 3 weeks

SMILES: COC(=O)[C@@H](C)O/N=C/c1cc(-n2c(=O)cc(C(F)(F)F)n(C)c2=O)c(F)cc1Cl [194(R)]
- activity level (growth control rate) Capsella bursa-pastoris ([1]; 15 g/ha): 5 (Level 5: growth control rate is above 85%)
- activity level (growth control rate) Capsella bursa-pastoris ([1]; 30 g/ha): 5 (Level 5: growth control rate is above 85%)
- activity level (growth control rate) Capsella bursa-pastoris ([1]; 60 g/ha): 5 (Level 5: growth control rate is above 85%)
- activity level (growth control rate) Veronica didyma Tenore ([2]; 15 g/ha): 5 (Level 5: growth control rate is above 85%)
- activity level (growth control rate) Veronica didyma Tenore ([2]; 30 g/ha): 5 (Level 5: growth control rate is above 85%)
- activity level (growth control rate) Veronica didyma Tenore ([2]; 60 g/ha): 5 (Level 5: growth control rate is above 85%)
- activity level (growth control rate) Abutilon theophrasti ([3]; 15 g/ha): 5 (Level 5: growth control rate is above 85%)
- activity level (growth control rate) Abutilon theophrasti ([3]; 30 g/ha): 5 (Level 5: growth control rate is above 85%)
- activity level (growth control rate) Abutilon theophrasti ([3]; 60 g/ha): 5 (Level 5: growth control rate is above 85%)
- activity level (growth control rate) Setaria viridis ([4]; 15 g/ha): 5 (Level 5: growth control rate is above 85%)
- activity level (growth control rate) Setaria viridis ([4]; 30 g/ha): 5 (Level 5: growth control rate is above 85%)
- activity level (growth control rate) Setaria viridis ([4]; 60 g/ha): 5 (Level 5: growth control rate is above 85%)
- activity level (growth control rate) Amaranthus retroflexus ([5]; 15 g/ha): 5 (Level 5: growth control rate is above 85%)
- activity level (growth control rate) Amaranthus retroflexus ([5]; 30 g/ha): 5 (Level 5: growth control rate is above 85%)
- activity level (growth control rate) Amaranthus retroflexus ([5]; 60 g/ha): 5 (Level 5: growth control rate is above 85%)
- activity level (growth control rate) Descurainia sophia ([6]; 15 g/ha): 5 (Level 5: growth control rate is above 85%)
- activity level (growth control rate) Descurainia sophia ([6]; 30 g/ha): 5 (Level 5: growth control rate is above 85%)
- activity level (growth control rate) Descurainia sophia ([6]; 60 g/ha): 5 (Level 5: growth control rate is above 85%)
- plant damage level Cotton ([7]; 15 g/ha): 0 (Level 0: growth control rate is less than 5%)
- plant damage level Cotton ([7]; 30 g/ha): 0 (Level 0: growth control rate is less than 5%)
- plant damage level Cotton ([7]; 60 g/ha): 0 (Level 0: growth control rate is less than 5%)
- plant damage level Soybeans ([8]; 15 g/ha): 0 (Level 0: growth control rate is less than 5%)
- plant damage level Soybeans ([8]; 30 g/ha): 0 (Level 0: growth control rate is less than 5%)
- plant damage level Soybeans ([8]; 60 g/ha): 0 (Level 0: growth control rate is less than 5%)
- plant damage level Corn ([9]; 15 g/ha): 0 (Level 0: growth control rate is less than 5%)
- plant damage level Corn ([9]; 30 g/ha): 0 (Level 0: growth control rate is less than 5%)
- plant damage level Corn ([9]; 60 g/ha): 0 (Level 0: growth control rate is less than 5%)
- plant damage level Peanut ([10]; 15 g/ha): 0 (Level 0: growth control rate is less than 5%)
- plant damage level Peanut ([10]; 30 g/ha): 0 (Level 0: growth control rate is less than 5%)
- plant damage level Peanut ([10]; 60 g/ha): 0 (Level 0: growth control rate is less than 5%)
- plant damage level Rice [11]: 0 (Level 0: growth control rate is less than 5%)
- Weeding effect in post-emergence stage, Digitaria sanguinalis ([12]; Dose 7.5 g/ha): 5 (Level 5: growth control rate is above 85%)
- Weeding effect in post-emergence stage, Digitaria sanguinalis ([12]; Dose 15 g/ha): 5 (Level 5: growth control rate is above 85%)
- Weeding effect in post-emergence stage, Alopecurus japonicus ([13]; Dose 7.5 g/ha): 5 (Level 5: growth control rate is above 85%)
- Weeding effect in post-emergence stage, Alopecurus japonicus ([13]; Dose 15 g/ha): 5 (Level 5: growth control rate is above 85%)
- Weeding effect in post-emergence stage, Abutilon theophrasti ([14]; Dose 7.5 g/ha): 5 (Level 5: growth control rate is above 85%)
- Weeding effect in post-emergence stage, Abutilon theophrasti ([14]; Dose 15 g/ha): 5 (Level 5: growth control rate is above 85%)
- Weeding effect in post-emergence stage, Setaria viridis ([15]; Dose 7.5 g/ha): 5 (Level 5: growth control rate is above 85%)
- Weeding effect in post-emergence stage, Setaria viridis ([15]; Dose 15 g/ha): 5 (Level 5: growth control rate is above 85%)
- Weeding effect in post-emergence stage, Eleusine indica ([16]; Dose 7.5 g/ha): 5 (Level 5: growth control rate is above 85%)
- Weeding effect in post-emergence stage, Eleusine indica ([16]; Dose 15 g/ha): 5 (Level 5: growth control rate is above 85%)
- activity level (growth control rate) Eleusine indica [16, 23]: 5 (Level 5: growth control rate is above 85%)
- Weeding effect in post-emergence stage, Echinochloa crusgalli ([17]; Dose 7.5 g/ha): 5 (Level 5: growth control rate is above 85%)
- Weeding effect in post-emergence stage, Echinochloa crusgalli ([17]; Dose 15 g/ha): 5 (Level 5: growth control rate is above 85%)
- activity level (growth control rate) Echinochloa crusgalli [17, 23]: 5 (Level 5: growth control rate is above 85%)
- activity level (growth control rate) Amaranthus retroflexus [18]: 5 (Level 5: growth control rate is above 85%)
- activity level (weed control effect) Scirpus juncoides [19]: 5 (Level 5: growth control rate is above 85%)
- activity level (weed control effect) Leptochloa chinensis [20]: 5 (Level 5: growth control rate is above 85%)
- activity level (weed control effect) Monochoria vaginalis [21]: 5 (Level 5: growth control rate is above 85%)

SMILES: CCC[S@@+]([O-])c1c(C(F)(F)F)ccc(C(=O)Nc2nnc(C)o2)c1F [Cpd B1]
- Control effect (%) of B applied alone (B) ([22]; B 7.5 g a.i./ha): 47.8%

SMILES: Cn1[nH]c(C2CC2)c(C(=O)c2ccc(C(F)(F)F)c(N3CCCCC3=O)c2Cl)c1=O [huanbifucaotong]
- Control effect (%) of B applied alone (B) ([22]; B 60 g a.i./ha): 27.4%

SMILES: CS(=O)(=O)c1cc(C(F)(F)F)ccc1C(=O)c1cnoc1C1CC1 [isoxaflutole]
- Control effect (%) of B applied alone (B) ([22]; B 15 g a.i./ha): 41.3%
